In PubChem BioAssay AID248 (DTP/NCI, 2004):
“And” between values parts separate entries of the source, which are not always exact repeats. Equal values may be shown once. Inconclusive results and toxic doses are left out. Rule as the data show it: active = T/C of 150% or more; inactive = T/C below 125%.

System: L1210 leukemia ip in BDF1 mice, survival T/C
Test: NCI In Vivo Anticancer Drug Screen. Data for tumor model L1210 Leukemia (intraperitoneal) in B6D2F1 (BDF1) mice
Settings: endpoint: mean survival time, higher = longer survival
Procedure, shortened: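 Survival endpoint. Drug-treated group vs vehicle group, expressed as T divided by C. Tumor passaged by transplantation.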

[1] = dose: 100.0 mg/kg/injection, schedule: Q01DX009 (ip), vehicle: Klucel (hydroxypropylcellulose) (HPC)
[2] = dose: 200.0 mg/kg/injection, schedule: Q01DX009 (ip), vehicle: Klucel (hydroxypropylcellulose) (HPC)
[3] = dose: 400.0 mg/kg/injection, schedule: Q01DX009 (ip), vehicle: Klucel (hydroxypropylcellulose) (HPC)
[4] = dose: 100.0 mg/kg/injection, schedule: Q04DX003 (ip), vehicle: Klucel (hydroxypropylcellulose) (HPC)
[5] = dose: 200.0 mg/kg/injection, schedule: Q04DX003 (ip), vehicle: Klucel (hydroxypropylcellulose) (HPC)
[6] = dose: 400.0 mg/kg/injection, schedule: Q04DX003 (ip), vehicle: Klucel (hydroxypropylcellulose) (HPC)
[7] = dose: 100.0 mg/kg/injection, schedule: Q01DX009 (ip), vehicle: saline
[8] = dose: 100.0 mg/kg/injection, schedule: Q04DX003 (ip), vehicle: saline
[9] = dose: 200.0 mg/kg/injection, schedule: Q01DX009 (ip), vehicle: saline
[10] = dose: 200.0 mg/kg/injection, schedule: Q04DX003 (ip), vehicle: saline
[11] = dose: 400.0 mg/kg/injection, schedule: Q01DX009 (ip), vehicle: saline
[12] = dose: 400.0 mg/kg/injection, schedule: Q04DX003 (ip), vehicle: saline
[13] = dose: 100.0 mg/kg/injection, schedule: Q01DX001 (ip), vehicle: saline
[14] = dose: 200.0 mg/kg/injection, schedule: Q01DX001 (ip), vehicle: saline
[15] = dose: 400.0 mg/kg/injection, schedule: Q01DX001 (ip), vehicle: saline
[16] = dose: 25.0 mg/kg/injection, schedule: Q04DX003 (ip), vehicle: saline

Measured: T/C

Nc1nc(N)c2c(n1)SCC(c1ccc(Cl)cc1)=N2
inactive: dose: 75.0 mg/kg/injection, schedule: Q01DX001 (ip), vehicle: other 101 % of control | dose: 150.0 mg/kg/injection, schedule: Q01DX001 (ip), vehicle: other 98 % of control

NC(CSS(=O)(=O)O)=NCCc1ccccc1
inactive: dose: 3.13 mg/kg/injection, schedule: Q04DX002 (ip), vehicle: Klucel (hydroxypropylcellulose) (HPC) 103 % of control | dose: 6.25 mg/kg/injection, schedule: Q04DX002 (ip), vehicle: Klucel (hydroxypropylcellulose) (HPC) 100 % of control | dose: 12.5 mg/kg/injection, schedule: Q04DX002 (ip), vehicle: Klucel (hydroxypropylcellulose) (HPC) 100 % of control

CCOC(=O)CNCc1cccc(Br)c1
inactive: dose: 50.0 mg/kg/injection, schedule: Q01DX005 (ip), vehicle: saline 98 % of control | dose: 100.0 mg/kg/injection, schedule: Q01DX005 (ip), vehicle: saline 112 % of control | dose: 200.0 mg/kg/injection, schedule: Q01DX005 (ip), vehicle: saline 102 % of control | dose: 400.0 mg/kg/injection, schedule: Q01DX005 (ip), vehicle: saline 100 % of control

O=C(CCCCCCCCC(=O)Nc1ccccc1F)Nc1ccccc1F
inactive: [1] 101 % of control | [2] 102 % of control | [3] 101 % of control

COc1ccc(OC)c(NC(=O)Oc2ccc(SC)cc2)c1
inactive: [4] 86 % of control | [5] 88 % of control | [6] 86 % of control

CCN(CC)c1ccc(N)cc1
inactive: dose: 6.25 mg/kg/injection, schedule: Q01DX009 (ip), vehicle: saline with Tween-80 112 % of control | dose: 12.5 mg/kg/injection, schedule: Q01DX009 (ip), vehicle: saline with Tween-80 102 % of control | dose: 12.5 mg/kg/injection, schedule: Q04DX003 (ip), vehicle: saline with Tween-80 100 % of control | dose: 25.0 mg/kg/injection, schedule: Q01DX009 (ip), vehicle: saline with Tween-80 104 % of control | dose: 25.0 mg/kg/injection, schedule: Q04DX003 (ip), vehicle: saline with Tween-80 94 % of control

O=[N+]([O-])c1cccnc1Cl
inactive: dose: 50.0 mg/kg/injection, schedule: Q01DX009 (ip), vehicle: Klucel (hydroxypropylcellulose) (HPC) 107 % of control | [1] 95 % of control | [4] 92 % of control | [2] 95 % of control | [5] 91 % of control

CC1=CC(C)(C)Nc2ccccc21
inactive: [7] 118 % of control | [8] 106 % of control | [9] 103 % of control | [10] 101 % of control | [11] 116 % of control | [12] 91 % of control

COc1cc(OC)cc(OC)c1
inactive: [4] 100 % of control | [5] 105 % of control | [6] 97 % of control

NC(=S)NC(N)=S
inactive: dose: 100.0 mg/kg/injection, schedule: Q04DX003 (ip), vehicle: saline with Tween-80 94 % of control | dose: 200.0 mg/kg/injection, schedule: Q04DX003 (ip), vehicle: saline with Tween-80 96 % of control | dose: 400.0 mg/kg/injection, schedule: Q04DX003 (ip), vehicle: saline with Tween-80 96 % of control

Cc1cc(=O)[nH]c2oc(-c3ccccc3)cc(=O)c12
inactive: [13] 101 % of control | [14] 103 % of control | [15] 100 % of control

O=C1c2sccc2-c2cccc3cccc1c23
inactive: dose: 50.0 mg/kg/injection, schedule: Q04DX003 (ip), vehicle: Klucel (hydroxypropylcellulose) (HPC) 98 % of control | [1] 98 % of control | [4] 96 % of control | [2] 106 % of control | [5] 102 % of control | [3] 103 % of control

CCCC[As](=O)(O)C(C)C
inactive: dose: 1.56 mg/kg/injection, schedule: Q01DX009 (ip), vehicle: saline 100 % of control | dose: 3.12 mg/kg/injection, schedule: Q01DX009 (ip), vehicle: saline 100 % of control | dose: 3.12 mg/kg/injection, schedule: Q04DX003 (ip), vehicle: saline 112 % of control | dose: 6.25 mg/kg/injection, schedule: Q04DX002 (ip), vehicle: saline 120 % of control | dose: 6.25 mg/kg/injection, schedule: Q04DX003 (ip), vehicle: saline 107 % of control | dose: 12.5 mg/kg/injection, schedule: Q01DX001 (ip), vehicle: saline 112 % of control | dose: 12.5 mg/kg/injection, schedule: Q04DX002 (ip), vehicle: saline 110 % of control | dose: 12.5 mg/kg/injection, schedule: Q04DX003 (ip), vehicle: saline 118 % of control | dose: 25.0 mg/kg/injection, schedule: Q01DX001 (ip), vehicle: saline 117 % of control | dose: 25.0 mg/kg/injection, schedule: Q01DX009 (ip), vehicle: saline 106 % of control and 111 % of control | [16] 105 % of control | dose: 50.0 mg/kg/injection, schedule: Q01DX001 (ip), vehicle: saline 103 % of control | dose: 50.0 mg/kg/injection, schedule: Q04DX002 (ip), vehicle: saline 117 % of control

c1ccc(CSc2ncnc3nncnc23)cc1
inactive: dose: 5.0 mg/kg/injection, schedule: Q01DX001 (ip), vehicle: other 104 % of control | dose: 10.0 mg/kg/injection, schedule: Q01DX001 (ip), vehicle: other 95 % of control | dose: 20.0 mg/kg/injection, schedule: Q01DX001 (ip), vehicle: other 110 % of control | dose: 40.0 mg/kg/injection, schedule: Q01DX001 (ip), vehicle: other 101 % of control | dose: 80.0 mg/kg/injection, schedule: Q01DX001 (ip), vehicle: other 98 % of control | dose: 100.0 mg/kg/injection, schedule: Q01DX001 (ip), vehicle: other 89 % of control | dose: 200.0 mg/kg/injection, schedule: Q01DX001 (ip), vehicle: other 101 % of control

NNC(=O)c1ccc(Cl)cc1Nc1ccc(F)cc1
inactive: [16] 94 % of control | dose: 50.0 mg/kg/injection, schedule: Q04DX003 (ip), vehicle: saline 100 % of control | dose: 100.0 mg/kg/injection, schedule: Q01DX001 (ip), vehicle: saline sonified 111 % of control

CC1NC(=S)N(c2ccc(S(=O)(=O)c3ccc(N4C(=O)C(C)NC4=S)cc3)cc2)C1=O (centres undefined)
inactive: [13] 102 % of control | [14] 98 % of control | [15] 98 % of control

c1ccc(C2=NCC3(CCCC3)N=C2c2ccccc2)cc1
inactive: [7] 101 % of control | [8] 97 % of control | [9] 91 % of control | [10] 90 % of control | [11] 100 % of control | [12] 92 % of control

COc1ccc(NCc2cnc3nc(N)nc(N)c3n2)cc1
inactive: dose: 20.0 mg/kg/injection, schedule: Q01DX009 (ip), vehicle: saline with Tween-80 110 % of control | dose: 40.0 mg/kg/injection, schedule: Q01DX009 (ip), vehicle: saline with Tween-80 108 % of control | dose: 80.0 mg/kg/injection, schedule: Q01DX009 (ip), vehicle: saline with Tween-80 106 % of control

CCCCCCCCCCCCCCCCCC(=O)c1ccccc1
inactive: [1] 105 % of control | [2] 105 % of control | [3] 100 % of control
